Columns and labels:
[1] = tested on: bone marrow-derived macrophages (BMDMs); experiment: Bone marrow derived macrophages incubated with increasing concentrations of CML for 48 hours; format: cell-based, murine; details: in vitro, increasing concentrations of CML (0.1 pM, 1 pM, 10 pM, 100 pM, 1 mM)
Description: Cells were cultured at 37° C. and 5% CO2 in a humidified incubator. Murine BMDMs were differentiated from tibial and femoral bone marrow aspirates. Recombinant murine macrophage colony-stimulating factor (Immunotools) was used at 20 ng ml^−1. After 7 days of differentiation, BMDMs were seeded in 24-well plates with 5×10^5 cells per well in triplicates. The medium was switched to serum-free medium 6 hours before the experiment. Cells were incubated with increasing concentrations of CML (untreated, 0.1 pM, 1 pM, 10 pM, 100 pM, 1 mM) for 48 hours, then collected for measurements.
Cell sorting for RT-qPCR and RNA sequencing (RNA-seq) was performed on a MoFlo Astrios (Beckman Coulter; FIG. 7a). Before surface staining, dead cells were excluded by using the Fixable Viability Dye eFluor 780 (1:1,000 dilution; Thermo Fisher Scientific) followed by incubation with Fc receptor blocking antibody CD16/CD32 (1:200 dilution, clone 2.4G2; BD Bioscience). The following antibodies were used for surface staining: anti-CD45 (1:200 dilution, clone 30-F11; Thermo Fisher Scientific); anti-CD11b (1:200 dilution, clone MI/70; Thermo Fisher Scientific). The following lineage antibodies were used (all at 1:300 dilution): anti-CD3 (clone 17A2; BioLegend); anti-CD19 (clone 6D5; BioLegend); anti-CD45R (clone RA3-6B2; BD Biosciences); Ly6C (clone AL-21; BD Biosciences); Ly6G (clone 1A8; BD Biosciences). […]

[2] = In vivo intestinal permeability to CML (CML translocated into the circulation after oral gavage, LC-MS); parameters: species or system mouse; details: young-adult and aged mice, SPF or GF, 4 hours post gavage
Description: Specific pathogen-free (SPF) and germ-free (GF) housed C57BL/6 mice were analyzed at 6-10 weeks of age (young-adult) and 96-104 weeks of age (aged). Mice of the aged group in the nontargeted metabolomics analysis were 17-18 months old. Except for nontargeted metabolomics and microbiota profiling, where only male mice were used, all groups included mice from both sexes. Mice were housed under a 12-hour light/12-hour dark cycle and temperatures of 18-23° C. with 40-60% humidity, with food and water given ad libitum. To avoid cage effects, mice from at least three different cages per experimental group were analyzed. […] Blood was collected retro-orbitally after 4 hours and fluorescence intensity was measured on fluorescence plates using an excitation wavelength of 493 nm and an emission wavelength of 518 nm. […] CML translocated into the circulation was measured by liquid chromatography-mass spectrometry (LC-MS). […]
Samples were extracted with precooled (−80° C.) extraction solution (80:20 methanol LC-MS grade: Milli-Q H2O). Targeted metabolite quantification by LC-MS was carried out using an Agilent 1290 Infinity II UHPLC system in line with an Agilent 6495 QQQ-MS operating in multiple reaction monitoring (MRM) mode. […] Peak areas were identified based on standards for each metabolite and calculated using MassHunter v.B.08.02 (Agilent). […]

N[C@@H](CCCCNCC(=O)O)C(=O)O [CML, N^6-carboxymethyllysine]
metabolic activity (mitochondrial activity) in BMDMs [1]: decreased metabolic activity
oxidative stress (cellular ROS) in BMDMs [1]: dose-dependent increase in oxidative stress
translocation of CML into the circulation after oral gavage [2]: highest in aged SPF mice

— patent US20250170224A1, “METHODS AND COMPOSITIONS FOR TREATING MICROGLIAL DYSFUNCTION AND IMPROVING METABOLIC DYSFUNCTION” (Ultimate Medicine AG, priority 2021, published 2025)
